Structures can show the parent of a compound that is named as a salt.
Tested on: blood and tissues
Assay: Transcriptional profiling, acute (single) dosing, EAE mice: blood and tissues
Assay type: in vivo
Settings: for Number of differentially expressed genes identified: Brain / Number of differentially expressed genes identified: Cerebellum / Number of differentially expressed genes identified: Lymph Node / Number of differentially expressed genes identified: Spleen / Number of differentially expressed genes identified: Whole blood / Number of differentially expressed genes identified: Spinal Cord: EAE, Acute Dosing
Description: EAE induction is generally performed by immunization with brain extracts, CNS proteins (such as myelin basic protein), or peptides from such protein emulsified in an adjuvant such as complete Freund's adjuvant, e.g., as described in Linker et al., Brain. 2011 March 134(Pt3): 678-92. […] FIG. 17 depicts exemplary immunophenotyping panels used to analyze various immune cell populations (e.g., T cells, T regulatory cells, NK cells, B cells, myeloid cells). […] The number of independent mice whose tissues were harvested for transcript profiling studies and whose data passed QC is shown in TABLE 15. Animals were exposed to CO2 and whole blood collected via cardiac puncture. Two 100 μl aliquots of whole blood were collected in 1.5 mL microcentrifuge tubes and snap frozen in liquid nitrogen. Peripheral (liver, spleen, kidney and jejunum) and CNS brain (cerebellum, hippocampus, striatum and cortex) tissues were harvested and snap frozen in liquid nitrogen, with special care taken to collect tissues of similar size and from the same location. All samples were stored at -80° C. until RNA extraction was conducted. For RNA preparation, frozen tissues were placed in 2 mL RNAse-free 96-well blocks with 1.5 mL QIAzol Lysis Reagent (QIAgen) and a 3.2 mm stainless steel bead (BioSpec Products, Bartlesville, Okla.). Tissues were disrupted for four cycles of 45 seconds in a Mini-Beadbeater (Biospec Products). RNA was extracted in chloroform and the aqueous phase was mixed with an equal volume of 70% ethanol. Extracted RNA was applied to RNeasy 96 plates and purified by the spin method according to the manufacturer's protocol (RNeasy 96 Universal Tissue Protocol, QIAgen, Hilden Germany). 50 ul of snap frozen mouse blood was re-suspended in lysis buffer with proteinase K and arrayed into deep-well plates for automated RNA extraction. RNA extractions were completed on […] (Beckman Coulter, Indianapolis, Ind.) using Agencourt RNAdvance Blood kit (Part number A35604) according to the manufacturer's specifications. RNA integrity was assessed using the HT RNA reagent kit (Part number 760410, Caliper Life Sciences, Hopkinton, Mass.) using a LabChip GX (PerkinElmer, Waltham, Mass.). RNA samples with a RQS score of >8.0 were considered high quality for downstream microarray processing. […] Washing and staining of the hybridized arrays were completed as described in the GeneChip Expression analysis technical manual for HT plate arrays using the Genechip® Array Station (Affymetrix, Santa Clara, Calif.) with modifications as described in […] et al. The processed GeneChip® plate arrays were scanned using GeneTitan scanner (Affymetrix, Santa Clara, Calif.). Affymetrix scans were subject to quality control (QC) measures. These tests included a visual inspection of the distribution of raw signal intensities and an assessment of RNA degradation, relative log expression (RLE), and normalized unscaled standard error (NUSE). All sample scans that passed these QC metrics were included in the analysis. […] Nucleic Acids Res 2003; 31:e15; Li C, et al. Genome Biol 2001; 2:[…]0032). […] Stat Appl Genet Mol Biol 2004; 3:Article3). […] Springer Science+Business Media 2005). […] Generally, no distinct sample groupings were apparent from this analysis; however, in the following cohorts, differences in EAE severity across the mice were manifest in global gene expression patterns: An example of this animal grouping is shown in FIG. 33 for the spinal cord from the chronically-dosed 7 h EAE mice. […] Three distinct groups of mice result from unsupervised clustering, and these animal groups correlate with the cumulative EAE score. […] Subsequent analyses for the cohorts listed above only included those animals with the most severe EAE scores; however, for the cohorts 'Spinal Cord, Acute Dosing, 7 h' and 'Spleen, Acute Dosing, 12 h,' there were an insufficient number of mice in the different treatment groups to perform such a sub-analysis. […]

[1] = 100 mpk DMF-vs-90 mpk MMF, 7 h after last dosing
[2] = 100 mpk DMF-vs-90 mpk MMF, 12 h after last dosing
[3] = 100 mpk DMF-vs-Vehicle, 7 h after last dosing
[4] = 100 mpk DMF-vs-Vehicle, 12 h after last dosing
[5] = lymph node, 100DMF-vs-Veh, 12 h
[6] = whole blood, 100DMF-vs-Veh, 7 h

COC(=O)/C=C/C(=O)OC [DMF, dimethyl fumarate]
Number of differentially expressed genes identified: Brain [1]: 0
Number of differentially expressed genes identified: Cerebellum [1]: 0
Number of differentially expressed genes identified: Lymph Node [1]: 0
Number of differentially expressed genes identified: Spleen [1]: 0
Number of differentially expressed genes identified: Whole blood [1]: 0
Number of differentially expressed genes identified: Brain [2]: 0
Number of differentially expressed genes identified: Cerebellum [2]: 0
Number of differentially expressed genes identified: Lymph Node [2]: 0
Number of differentially expressed genes identified: Spinal Cord [2]: 0
Number of differentially expressed genes identified: Whole blood [2]: 0
Number of differentially expressed genes identified: Brain [3]: 0
Number of differentially expressed genes identified: Cerebellum [3]: 0
Number of differentially expressed genes identified: Lymph Node [3]: 7
Number of differentially expressed genes identified: Spleen [3]: 21
Number of differentially expressed genes identified: Whole blood [3]: 3
Number of differentially expressed genes identified: Brain [4]: 0
Number of differentially expressed genes identified: Cerebellum [4]: 0
Number of differentially expressed genes identified: Lymph Node [4]: 2
Number of differentially expressed genes identified: Spinal Cord [4]: 1
Number of differentially expressed genes identified: Whole blood [4]: 0
differentially expressed genes (cerebellum, 100DMF-vs-90MMF, 7 h): None
differentially expressed genes (cerebellum, 100DMF-vs-90MMF, 12 h): None
differentially expressed genes (cerebellum, 100DMF-vs-Veh, 7 h): None
differentially expressed genes (cerebellum, 100DMF-vs-Veh, 12 h): None
differentially expressed genes (lymph node, 100DMF-vs-90MMF, 7 h): None
differentially expressed genes (lymph node, 100DMF-vs-90MMF, 12 h): None
FC Aox1 (1419435_PM_at) (lymph node, 100DMF-vs-Veh, 7 h): 2.16
FC F3 1417408_PM_at (lymph node, 100DMF-vs-Veh, 7 h): 1.59
FC Gclm 1439050_PM_at (lymph node, 100DMF-vs-Veh, 7 h): 1.53
FC Nqo1 (1423627_PM_at) (lymph node, 100DMF-vs-Veh, 7 h): 2.19
FC Pir (1429001_PM_at) (lymph node, 100DMF-vs-Veh, 7 h): 1.52
FC Srxn1 (1419942_PM_at) (lymph node, 100DMF-vs-Veh, 7 h): 1.71
FC Srxn1 (1426875_PM_s_at) (lymph node, 100DMF-vs-Veh, 7 h): 1.68
FC Aox1 (1419435_PM_at) [5]: 1.69
FC Nqo1 (1423627_PM_at) [5]: 1.69
differentially expressed genes (spinal cord, 100DMF-vs-90MMF, 12 h): None
FC Blvrb (1451386_PM_at) (spinal cord, 100DMF-vs-Veh, 12 h): 1.84
differentially expressed genes (spleen, 100DMF-vs-90MMF, 7 h): None
FC 1441413_PM_at (spleen, 100DMF-vs-Veh, 7 h): 1.52
FC 1458902_PM_at (spleen, 100DMF-vs-Veh, 7 h): 1.69
FC Aox1 (1419435_PM_at) (spleen, 100DMF-vs-Veh, 7 h): 1.74
FC Cat 1416430_PM_at (spleen, 100DMF-vs-Veh, 7 h): 1.63
FC Dennd4a 1435975_PM_at (spleen, 100DMF-vs-Veh, 7 h): 1.56
FC Dnmt31 1425035_PM_s_at (spleen, 100DMF-vs-Veh, 7 h): 1.81
FC Gclm 1439050_PM_at (spleen, 100DMF-vs-Veh, 7 h): 2.02
FC Gsta3 (1423436_PM_at) (spleen, 100DMF-vs-Veh, 7 h): 1.74
FC Gsta3 (1423437_PM_at) (spleen, 100DMF-vs-Veh, 7 h): 1.55
FC Higd1c /// Mettl7a1 /// Mettl7a2 1434150_PM_a_at (spleen, 100DMF-vs-Veh, 7 h): 2.00
FC Il1f9 1425958_PM_at (spleen, 100DMF-vs-Veh, 7 h): 2.33
FC Kif22 1437716_PM_x_at (spleen, 100DMF-vs-Veh, 7 h): 1.53
FC LOC677317 /// Me1 1416632_PM_at (spleen, 100DMF-vs-Veh, 7 h): 1.52
FC Nqo1 (1423627_PM_at) (spleen, 100DMF-vs-Veh, 7 h): 3.34
FC Pir (1429001_PM_at) (spleen, 100DMF-vs-Veh, 7 h): 2.99
FC Polh 1447837_PM_x_at (spleen, 100DMF-vs-Veh, 7 h): 1.51
FC Srxn1 (1419942_PM_at) (spleen, 100DMF-vs-Veh, 7 h): 2.08
FC Srxn1 (1426875_PM_s_at) (spleen, 100DMF-vs-Veh, 7 h): 2.08
FC Srxn1 (1451680_PM_at) (spleen, 100DMF-vs-Veh, 7 h): 1.84
FC Tmem41b 1428586_PM_at (spleen, 100DMF-vs-Veh, 7 h): 1.61
FC Ugt1a1 /// Ugt1a10 /// Ugt1a2 /// Ugt1a5 /// Ugt1a6a /// Ugt1a6b /// Ugt1a7c /// Ugt1a9 (1426261_PM_s_at) (spleen, 100DMF-vs-Veh, 7 h): 1.51
differentially expressed genes (whole blood, 100DMF-vs-Veh, 12 h): None
differentially expressed genes (whole blood, 100DMF-vs-90MMF, 7 h): None
differentially expressed genes (whole blood, 100DMF-vs-90MMF, 12 h): None
FC Dtx4 1436545_PM_at [6]: 1.72
FC Egln3 1418649_PM_at [6]: 1.82
FC Rnf128 (1449036_PM_at) [6]: 1.62

From US20160115540A1, “PRODRUGS AND DRUGS” (Biogen MA Inc., priority 2013, published 2016)
